Results reported in a melting point compilation (Tetko et al.; mined from patent text by program, amines drawn as free bases though some values may be those of a salt).

melting point [°C] | Structure (SMILES)
66 to 67 | O=C(CC(=O)C(F)(F)F)c1ccc(Cl)cc1
181 to 184 | Fc1ccc(-c2cc(-c3cccs3)[nH]n2)cc1
128 to 130 | Nc1cccc(CC2COc3ccc(OCc4ccc5ccc(Cl)cc5n4)cc3C2)c1 (single isomer, unassigned; (+))
118 to 120 | O=[N+]([O-])c1oc2ccc(NCc3ccccc3)cc2c1-c1ccccc1
153 to 155 | CNc1nc(CC(=O)Nc2cccc(C(F)(F)F)c2)cs1
193 to 195 | CCCCc1ccc(-c2coc(C(=O)O)cc2=O)cc1
82 | CC(=O)N(C)CCc1coc2ccc3c(c12)CCCO3
203 to 205 | CCN1CCN(c2cc3c(cc2F)c(=O)c(C(=O)O)cn3CC)CC1C (stereo not given)
71 to 72 | CCCCc1c(/C=C/C(=O)OC)ccc2cc(OC)ccc12
199 to 201 | CCN1c2ncc(C=O)cc2C(=O)N(C)c2ccc(Cl)nc21
133 to 135 | CC(C)N1C(=O)c2ccccc2N(C(=O)CCl)S1(=O)=O
> 300 | Cc1c(C(=O)O)sc2ccc(Br)cc12
221 | Cn1c2ccc(Br)cc2c2cc(Br)cc([N+](=O)[O-])c21
202 to 203 | Cc1cc2c(cc1Cl)N(C(=O)Nc1ccc(C)c(-c3cccnc3)c1)CC2
160 | Cc1cc(COc2ccc3nc(NC(=O)NCCN4CCOCC4)sc3c2)n(C)n1
258 to 260 | O=c1[nH]cc(-c2ccncc2)cc1[N+](=O)[O-]
248 to 249 | CC(C)(C)OC(=O)N1CCC(CCNC2(c3ccccc3Cl)C(=O)Nc3cc(Cl)c(Cl)cc32)CC1 (stereo not given)
243 to 245 | Cc1c(CCO)c(=O)oc2cc(O)cc(O)c12
184 to 189 | O=C(O)c1cccc(C(=O)CCl)n1

melting point [°C] | Structure (SMILES)
191 | O=c1[nH]c2cc(Cl)ccc2n1CCCN1CCC(O)(c2ccc(Cl)cc2)CC1
58 to 60 | CC(=O)c1cc(Cl)cc(Oc2ncccc2C(=O)NCc2ccc(C(C)(C)O)cc2Cl)c1
249 | Cc1ccc2c(c1)c1cc(-c3ccc(Cl)cc3Cl)c(=O)n(C)c1n2CCCN1C(=O)c2ccccc2C1=O
175 to 176 | C=CCOc1cc(O)c(C#N)c(Cl)c1
282 to 284 | COc1ccc2c(c1)C(=O)c1c-2n(CCCBr)c(=O)c2cc([N+](=O)[O-])ccc12
248 to 249 | Cc1c(-c2ccccc2)[nH]c(=O)n1C1CCN(Cc2cccc(Cl)c2)CC1
208 to 209 | CS(=O)(=O)c1c(C(=O)O)ccc(Cl)c1F
177 to 182 | Cn1ncc2nn(-c3cc(C(F)(F)F)ccc3F)c(=O)c(Cl)c21
180 to 184 | CC1=NN(c2ccc(Cl)cc2)C(c2ccc(N)c(C)c2)C1 (stereo not given)
136 to 138 | CCOC(=O)Cn1c2c(c3c(Cl)c(Cl)ccc31)CCN(C(=O)OC(C)(C)C)CC2
220 to 222 | Cc1cc2cc(C(=O)O)ccc2s1
115 to 116 | O=C(O)CCCON1CCNC1=Nc1c(Cl)cccc1Cl
189 to 191 | O=C(CCCc1ccccc1)N[C@H]1C[C@H](C(=O)O)Nc2cc(Cl)cc(Cl)c21 (relative stereo)
89 to 99 | Fc1cccc(C=Cc2nccc3ccccc23)c1
243 to 245 | NS(=O)(=O)c1ccc(C2(c3nc4c(F)cccc4s3)C=C(C(F)F)NN2)cc1 (stereo not given)
258 to 260 | O=C(Nc1cc([N+](=O)[O-])cc([N+](=O)[O-])c1)c1cc(Br)ccc1O
52 to 54 | CCCN(c1cc(Cl)ncn1)n1cccc1
106 to 107 | CC(=O)c1cc(Cn2ccnc2)ccc1O
93 to 94 | CCOC(=O)C1=CC(=O)CC(c2ccc(Cl)cc2)N1 (stereo not given)

melting point [°C] | Structure (SMILES)
197 to 199 | CCOC(=O)c1cnc2c(NC(=O)c3c(Cl)cccc3Cl)cccc2c1S
67 to 68 | N#CCc1cc([N+](=O)[O-])c(F)cc1Cl
132 to 134 | CCN(Cc1cc(Cl)ccc1OCC(C)C)c1ccc(C(=O)O)nn1
94 to 95 | COc1cccc(C(CNC(=O)Cc2c(Cl)cncc2Cl)C(C)C)c1 (stereo not given)
36 to 38 | CCOC(=O)Cc1ccc(OCCCCl)c(OC)c1
107 to 109 | CCN(CC)c1ccc(C=O)c(OCCN2CCOCC2)c1
61 to 63 | N#Cc1ccc([C@@H]2[C@@H]3C(=O)N(Cc4ccc5c(c4)OCO5)C(=O)[C@@H]3[C@H]3CCCN32)cc1 (racemic)
85 to 86 | Cc1cc(Br)cc(C#N)c1
260 to 261 | CCOC(=O)c1cnc2sc(-c3ccc([N+](=O)[O-])cc3)c(C)c2c1O
156 to 157 | COC(=O)C(Cc1ccccc1)NC(=O)c1cc2cc(Cl)ccc2[nH]1 (stereo not given)
195 to 197 | O=C(O)Cc1ccc(OCc2ccc(F)cc2C(=O)O)cc1
130 to 131 | Cc1nc(C(F)(F)F)ccc1C(=O)C1=C(Sc2ccc(Cl)cc2)C2CCC(C2)C1=O (stereo not given)
183 to 185 | O=S1(=O)c2sccc2C(O)CN1Cc1ccncc1 (stereo not given)
121 to 123 | Nc1ccc(C(O)(C(F)(F)F)C(F)(F)F)cc1S
170 to 174 | CCCN(CCC)C(=O)Cn1c(-c2ccc(Cl)cc2)nc2ccc(Cl)nc21
128 to 130 | C=CCc1c(O)ccc2ccc(OCC(=O)OC)cc12
133 to 134 | COc1cc([C@H]2CS[C@@H](c3cc(OC)c(OC)c([N+](=O)[O-])c3)S2)cc(OC)c1OC (relative stereo)
120 | C#CCn1cc(C=O)c([N+](=O)[O-])c1

The remaining lines, values behind:

Structure (SMILES) | melting point [°C]
Fc1cc(F)c(N=C2NCCN2)c(F)c1 | 148 to 150
CN(C)c1ccc(Nc2ncc(C(=O)O)c(=O)[nH]2)cc1 | 261 to 263
CN1C(=O)N(C)C(O)C1O (stereo not given) | 140
CNC(=O)c1ccc(-c2ccc(NC(=O)NCc3cccnc3)cc2)nc1NCc1ccncc1 | 218 to 219
CC(C)=C1C(=O)N(c2cc(F)c(C#N)cc2F)C(=O)C1=C(C)C | 144
CC(C)=CC(=O)N1CC(NC(=O)Nc2cccc(C(=O)O)c2)C(=O)N(CC(=O)c2ccccc2C)c2cc(C)ccc21 (stereo not given) | 240 to 242
COc1ccc(OCC(O)CCCl)cc1 (stereo not given) | 65 to 68
CC(C)c1ccc2c(c1)C(O)(c1ccccn1)CC(C)(C)CO2 (stereo not given) | 72
C=CC(C)(C)C1=C(O)C(=O)c2ccccc2C1=O | 60
CN(C)C=C1CCN(c2ccccc2)c2ccccc2C1=O | 131 to 133
O=c1c2cnc(-c3ccccc3)nc2sn1CCN1CCOCC1 | 163 to 165
COc1ccc(CCOc2ccc(NC(=O)N(C)OC)cc2)cc1 | 100 to 101
COc1ccc(C2=NN(C(C)(C)C)C(=O)[C@H]3CCCC[C@@H]23)cc1OC (relative stereo) | 99 to 101
CN(C(=O)Nc1ccccc1C=Cc1cc(C(C)(C)C)c(O)c(C(C)(C)C)c1)C1CCN(Cc2ccc(F)cc2)CC1 | 174 to 175
CCCCc1nnc(S(=O)Cc2ccc(OC)cc2)n1Cc1ccc(OC(C(=O)O)c2ccccc2)cc1 (stereo not given) | 74 to 75
N#CN=C(NCCO)NCCCSc1nccc(NC(N)=NCC(F)(F)F)n1 | 114 to 116
Cc1ccc(S(=O)(=O)N2c3ccccc3C(c3ccccc3)(c3ccccc3)C2NC(=O)Nc2ccc(F)cc2F)cc1 (stereo not given) | 244 to 246
CC1=C(C)N(c2c(Br)cc(C)cc2Br)C2=NCCN21 | 154 to 156
CC=Cc1ccccc1Oc1ccc(Oc2ccccc2C=CC)nn1 | 165 to 168
C/C(=C\c1ccc(C(=O)O)cc1)c1ccc2c(c1)C(C)(C)C(=O)CC2(C)C | 260 to 261
COc1ccc(CNc2nc(Cl)c3ncn(Cc4ccc(OC)cc4)c3n2)cc1 | 161 to 164
O=C(Nc1cnns1)c1ccccc1 | 267

Structure (SMILES) | melting point [°C]
CCC1=Nc2nc(C3CCCC3)[nH]c2C2=N[C@H](Cc3ccccc3)CN12 | 187 to 189
COC(c1ccc(NC(=O)c2c(C)nn(C)c2C)c(C(C)CC(C)C)c1)(C(F)(F)F)C(F)(F)F (stereo not given) | 94 to 96
COc1cncnc1N1CCN(CCCc2csc3ccc(C(N)=O)cc23)CC1 | 169 to 170
NC(=O)c1n[nH]c(S(=O)(=O)c2ccc(Br)cc2)n1 | 130 to 136
COC(=O)C(C)c1cccc2c(=O)c3ccccc3ccc12 (stereo not given) | 37 to 39
CC(=O)Oc1ccc(S(=O)(=O)Cl)cc1N=NC(C(C)=O)C(=O)Nc1ccccc1 (stereo not given) | 225 to 226
COc1ccc(-n2ccc(=O)c(-c3ccnn3-c3ccccc3)n2)cc1 | 179 to 180
FC(F)(F)c1ccc2sc(C3=CCN(Cc4ccccc4)CC3)nc2c1 | 124 to 125
CC(O)[C@@H](Cc1ccccc1)NC(=O)OC(C)(C)C (stereo not given in full) | 127
O=C(NC/C=C\COc1cc(CN2CCCC2)ccn1)c1ccc[nH]1 | 124 to 127
O=C1Cc2c([nH]c3ccc(Br)cc23)-c2ccccc2N1 | > 300
CCCOC(C)c1ccc(-c2ccc(OCc3ccccc3)cc2)cc1 (single isomer, unassigned; (+)) | 106 to 108
COc1ccc(CN2C(=O)CN(Cc3cccc(I)c3)S2(=O)=O)cc1 | 98 to 100
CNCCNC(=NCCSCc1[nH]cnc1C)NC#N | 146 to 148
CC1(C)SC2C(NC(=O)Cc3ccccc3)C(=O)N2C1NC(=O)OCC(Cl)(Cl)Cl (stereo not given) | 223 to 224
COc1cccc2c1C[C@H]1C[C@@H](CN3CCC(O)(c4ccc(Cl)cc4)CC3)CN(C)[C@@H]1C2 | 202 to 204
COc1ccc(N2C(=O)C(N3C(=O)c4ccccc4C3=O)C2C(C)=Cc2ccccc2)cc1 (stereo not given) | 105 to 107
CN(Cc1cccc2ccccc12)c1ncnc2c(N3CCOCC3)nc(N3CCC(N(C)C)CC3)nc12 | 146 to 148
COC(=O)[C@H](Cc1ccc(OS(=O)(=O)C(F)(F)F)c(C2SCCS2)c1)NC(C)=O | 116 to 118
C=CC(=O)OCCc1cc(=O)c(OCc2ccccc2)c(C(=O)c2ccc(Cc3ccc(F)cc3)o2)o1 | 104 to 106
CCCCOc1cc(CO)cc(N)c1Cc1ccccc1 | 105 to 107
C=CC1OC(=O)c2c(Oc3nc(OC)cc(OC)n3)cccc21 (stereo not given) | 94 to 97
